{"source": "patent US20090220604A1", "about": "“AMINO ACIDS IN MICELLE PREPARATION” (ANGIOTECH INTERNATIONAL AG, priority 2002, published 2009)", "test": "Recovery of paclitaxel added to mixtures after heating to 55° C. for 1 hour (reverse phase HPLC with UV detection)", "format": "physicochemical", "protocol": "The desirability of removing unreacted starting materials and/or acidic reaction by-products can be seen by reference to the data in Table 1. […] According to the data, when paclitaxel is combined with a diblock copolymer having up to 2% residual monomer and up to 0.2 μmol/mg acid content (expressed as the number of protons titrated in a solution prepared by dissolving 1 mg of diblock copolymer in water), after heating, only 95% of the paclitaxel initially added to the mixture could be recovered, as quantified using a reverse phase HPLC assay with UV detection and a taxane optimized C18 column."}
{"smiles": "CC(=O)O[C@H]1C(=O)[C@@]2(C)[C@H]([C@H](OC(=O)c3ccccc3)[C@]3(O)C[C@H](OC(=O)[C@H](O)[C@@H](NC(=O)c4ccccc4)c4ccccc4)C(C)=C1C3(C)C)[C@]1(OC(C)=O)CO[C@@H]1C[C@@H]2O", "note": "[paclitaxel]", "values": [{"measurement": "Paclitaxel recovered after heating", "setting": "combined with diblock copolymer having up to 2% residual monomer and up to 0.2 μmol/mg acid content", "result": 95, "unit": "%"}, {"measurement": "Paclitaxel recovered after heating", "setting": "combined with methoxypolyethylene glycol, no measured acidic components and no DL-lactide monomer", "result": 99, "unit": "%"}, {"measurement": "Paclitaxel recovered after heating", "setting": "diblock copolymer with greatly reduced quantities of residual monomer and acidic components", "result": 98, "unit": "%"}]}
